PMC9811682 (Frontiers in Chemistry, 2022)
Where two headings read alike, the source gives them in different places.

Legend:
[1] = target: T1, BChE (EC 3.1.1.8, from equine serum) (Equus caballus, UniProt P81908); experiment: biochemical; format: biochemical; settings: for BChE IR, %: tested at 100 μM, triplicate
T1 construct: BChE (EC 3.1.1.8, from equine serum); purchased Aladdin (Shanghai, China); host or cells: equine serum
Method: The fresh spore suspensions of SGP-1 and the seven other strains were inoculated into an Erlenmeyer flask (250 ml) containing 100 ml of liquid medium (glucose 2%, maltose 1%, mannitol 2%, glutamic acid 1%, peptone 0.5%, and yeast extract 0.3% in distilled water) and fermented at 28°C for 12 days on a rotary shaker at 200 rpm. To each fermentation broth was added 200 ml of ethyl acetate (EtOAc), and extraction was performed with the assistance of ultrasonication (40 kHz) for 30 min. The EtOAc solutions were removed in vacuo at 37°C to produce the EtOAc extracts. Each fungal EtOAc extract was dissolved in methanol at a concentration of 100.0 mg/ml, and was further diluted to a […] solution used for an in vitro BChE inhibitory activity assay. A sample of strain SGP-1 was analyzed using an HPLC-photo-diode array detector (PDAD)-UV with an analytical Kromasil C18 column (5 μm, 100 Å, 4.6 mm × 250 mm; Akzo Nobel) on an Agilent 1100 HPLC system equipped with a PDAD (G1316A). The extraction solution in methanol (100.0 mg/ml) was filtered with a 0.45-μm membrane, and then injected (20 μl) into the column, followed by elution with an MeOH-H2O linear gradient (20%→100% MeOH in 20 min followed by 5 min with isocratic 100% MeOH) mobile phase (flow rate 1 ml/min). During the separation procedure, the constituents of the emerging chromatographic peaks were collected in Eppendorf tubes with 2 s of delay. Each eluate was fixed to a volume of 200 μl, which was then used for the BChE inhibitory activity assay. The acquired PDAD data, including the UV spectra of peaks, were processed using Agilent OpenLAB software.
(§1) The inhibitory activities against AChE (EC 3.1.1.7) and BChE (EC 3.1.1.8) of the fungal samples and test compounds were analyzed following Ellman’s method ([Ellman et al., 1961]) with modifications. AChE (EC 3.1.1.7, from electric eel), BChE (EC 3.1.1.8, from equine serum), acetylthiocholine iodide (ATCI), butyrylthiocholine iodide (BTCI), and 5,5′-dithiobis (2-nitrobenzoic acid) (DTNB) were purchased from Aladdin (Shanghai, China). AChE and BChE solutions were prepared with water (0.2 units/ml). ATCI and BTCI solutions (10 mM) were prepared with deionized water before using. A DTNB solution (10 mM) was prepared in a 0.1 M, pH 8.0 solution of potassium dihydrogen phosphate (1.36 g, 10 mmol) in 100 ml of water (PBS). The fungal samples for screening were diluted to 1.0 mg/ml with methanol. The test compounds were dissolved in methanol (10 mM) as stock solutions. Subsequently, at least five different concentrations of each compound (double ratio dilution with methanol) were used to determine the half maximal inhibitory concentration (IC50). The tests were performed using 96-well plates. First, 160 μl of PBS, 2 μl of the test sample solution, 20 μl of AChE or BChE, and 10 μl of DTNB were added and mixed in each well, and then preincubated at 37°C for 10 min. After the addition of 10 μl of ATCI or BTCI, the reaction was initiated and incubated at 37°C for another 10 min. Then, the absorbance was measured at 412 nm. The wells with 2 μl of methanol replacing the test sample solution was used to determine 100% of the enzyme activity, and 20 μl of water replacing the enzyme solution was used to determine the blank value. All of the tests for each sample were performed in triplicate. The inhibition curve was fitted by plotting the inhibition rate vs. the logarithm of the test compound concentration. The IC50 values were calculated using Microsoft Excel software, and the data were expressed as the mean ± SD. The inhibition rate was calculated using the formula: IR% = [(Ac-As)]/[(Ac-Ab)] × 100%, where Ab denotes the absorbance of the blank control without the enzyme solution, Ac represents the absorbance of the control without the sample solution, and As denotes the absorbance of the sample.

[2] = target: T2, AChE (EC 3.1.1.7, from electric eel) (Electrophorus electricus, UniProt O42275); experiment: In vitro AChE inhibitory activity assay (modified Ellman's method); format: biochemical; settings: tested at 100 μM, triplicate
T2 construct: purchased Aladdin (Shanghai, China)
Method: as §1

[3] = target: T1, BChE (EC 3.1.1.8, from equine serum); experiment: Kinetic study of BChE inhibition (Lineweaver-Burk and secondary plots); format: biochemical
Method: Kinetic studies were performed using the same protocol as the BChE inhibitory activity assay, and the substrate BTCI was used in a series of concentrations, 0.2, 0.4, 0.5, 0.6, and 0.7 mM. The test compound concentrations were set according to the inhibition IC50 of each compound. The enzymatic reaction was extended to 15 min before the detection of the absorbance. Lineweaver–Burk plots were generated to obtain the kinetic parameters, Michaelis constant (Km) and maximum velocity (Vmax), according to which inhibition modes were determined.

[4] = target: α-glucosidase; settings: earlier study quoted in discussion; no reference given; cited from earlier work
[5] = sample concentration that led to 50% enzyme activity loss, mean ± SD, read-out: BChE IC50
[6] = BChE, competitive inhibition, secondary plot of K vs [I], read-out: Ki (inhibition constant)

T1 sequence (P81908 whole entry): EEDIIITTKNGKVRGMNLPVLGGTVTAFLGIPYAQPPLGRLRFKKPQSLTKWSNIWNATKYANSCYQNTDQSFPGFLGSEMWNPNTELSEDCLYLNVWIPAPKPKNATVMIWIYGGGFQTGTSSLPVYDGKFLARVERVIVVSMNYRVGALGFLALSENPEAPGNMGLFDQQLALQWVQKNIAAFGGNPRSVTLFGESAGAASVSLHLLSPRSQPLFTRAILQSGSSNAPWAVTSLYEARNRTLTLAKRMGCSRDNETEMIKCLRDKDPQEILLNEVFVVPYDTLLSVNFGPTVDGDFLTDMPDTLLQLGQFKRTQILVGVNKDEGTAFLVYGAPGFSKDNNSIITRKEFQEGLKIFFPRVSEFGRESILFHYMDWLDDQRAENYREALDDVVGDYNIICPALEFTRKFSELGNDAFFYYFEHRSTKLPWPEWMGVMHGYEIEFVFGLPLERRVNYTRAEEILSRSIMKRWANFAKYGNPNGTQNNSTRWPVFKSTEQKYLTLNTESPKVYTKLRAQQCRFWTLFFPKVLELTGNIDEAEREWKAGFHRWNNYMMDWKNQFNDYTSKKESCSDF
T2 sequence (O42275 24-633): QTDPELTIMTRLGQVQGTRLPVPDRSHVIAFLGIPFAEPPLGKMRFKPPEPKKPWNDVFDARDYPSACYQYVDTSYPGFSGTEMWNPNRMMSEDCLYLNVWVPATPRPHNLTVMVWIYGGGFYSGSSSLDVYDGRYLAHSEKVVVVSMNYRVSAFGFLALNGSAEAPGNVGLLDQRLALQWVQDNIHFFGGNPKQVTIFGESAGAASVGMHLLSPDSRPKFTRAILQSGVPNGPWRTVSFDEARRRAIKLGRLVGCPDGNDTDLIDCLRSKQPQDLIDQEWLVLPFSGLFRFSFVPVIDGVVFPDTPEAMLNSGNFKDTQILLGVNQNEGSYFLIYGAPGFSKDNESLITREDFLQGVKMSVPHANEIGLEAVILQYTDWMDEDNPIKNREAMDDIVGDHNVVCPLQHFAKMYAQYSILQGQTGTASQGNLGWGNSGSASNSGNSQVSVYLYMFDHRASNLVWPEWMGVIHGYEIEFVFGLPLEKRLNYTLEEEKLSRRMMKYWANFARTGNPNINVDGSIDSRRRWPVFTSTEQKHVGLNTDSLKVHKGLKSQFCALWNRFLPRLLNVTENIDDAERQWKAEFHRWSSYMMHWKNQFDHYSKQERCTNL

| SMILES | IC50 [1, 5] [µM] | BChE IR, % [1] [%] | AChE IR, % [2] [%] | Ki [3, 6] [µM] | IC50 [1] [µM] | IC50 [4] [µM] | Ki [3] [µM] | BChE IR, % ([1]; listed as galantamine) [%] |
| --- | --- | --- | --- | --- | --- | --- | --- | --- |
| CC(C)=CCc1cc(/C=C2\OC(=O)C(c3ccc(O)c(CC=C(C)C)c3)=C2O)ccc1O [Aspulvinone H, aspulvinone H, reference compound] | > 100 | 6.5 ± 2.6 | 9.6 ± 3.4 | – | – | – | – | – |
| COC(=O)C1(O)OC(=O)C(Cc2ccc(O)c(CCC(C)(C)OC)c2)=C1c1ccc(O)cc1 (centres unmarked) [Compound 1, methyl-2-hydroxy-4-(4-hydroxy-3-(3-methoxy-3-methylbutyl)benzyl)-3-(4-hydroxyphenyl)-5-oxo-2,5-dihydrofuran-2-carboxylate] | > 100 | 15.6 ± 2.3 | 11.2 ± 3.6 | – | – | – | – | – |
| COC(=O)C1(O)OC(=O)C(Cc2ccc(O)c(CCC(C)(C)O)c2)=C1c1ccc(O)cc1 (centres unmarked) [Compound 2, methyl-2-hydroxy-4-(4-hydroxy-3-(3-hydroxy-3-methylbutyl)benzyl)-3-(4-hydroxyphenyl)-5-oxo-2,5-dihydrofuran-2-carboxylate] | > 100 | 3.2 ± 3.6 | 7.7 ± 1.0 | – | – | – | – | – |
| COC(=O)[C@@]1(O)OC(=O)C(Cc2ccc3c(c2)CCC(C)(C)O3)=C1c1ccc(O)cc1 [Compound 3, flavipesolide B] | > 100 | 22.5 ± 3.1 | 19.6 ± 4.2 | – | – | – | – | – |
| COC(=O)[C@@]1(O)OC(=O)C(Cc2ccc(O)c(CC=C(C)C)c2)=C1c1ccc(O)cc1 [Compound 4, butyrolactone VIII] | 45.8 ± 6.9 | 67.3 ± 2.8 | 11.9 ± 1.0 | 23.6 | – | – | – | – |
| COC(=O)C1(Cc2ccc(O)c(CC=C(C)C)c2)OC(=O)C(O)=C1c1ccccc1 (centres unmarked) [Compound 5, versicolactone B] | 44.3 ± 3.7 | 64.4 ± 3.2 | 10.4 ± 1.9 | 38.2 | – | – | – | – |
| COC(=O)[C@@]1(Cc2ccc(O)c(CC=C(C)C)c2)OC(=O)C(O)=C1c1ccc(O)cc1 [Compound 6, butyrolactone I] | – | 68.0 ± 4.1 | −6.7 ± 3.6 | – | 35.5 ± 1.3 | 1.52 | 19.3 | – |
| CCOC(=O)C1(Cc2ccc(O)c(CC=C(C)C)c2)OC(=O)C(O)=C1c1ccc(O)cc1 (centres unmarked) [Compound 7, butyrolactone VII] | 18.4 ± 2.5 | 76.0 ± 3.5 | 11.7 ± 1.4 | 12.3 | – | – | – | – |
| CC(C)=CCc1cc(CC2OC(=O)C(O)=C2c2ccc(O)cc2)ccc1O (centres unmarked) [Compound 8, 3-hydroxy-5-[[4-hydroxy-3-(3-methyl-2-buten-1-yl)phenyl]methyl]-4-(4-hydroxyphenyl)-2(5H)-furanone] | 45.1 ± 7.2 | 60.9 ± 0.6 | 14.2 ± 0.5 | 35.7 | – | – | – | – |
| COC(=O)C1(Cc2ccc(O)cc2)OC(=O)C(O)=C1c1ccc(O)cc1 (centres unmarked) [Compound 9, butyrolactone II] | > 100 | 19.9 ± 6.0 | 9.6 ± 0.5 | – | – | – | – | – |
| CC1(C)CCc2cc(CC3OC(=O)C(O)=C3c3ccc(O)cc3)ccc2O1 (centres unmarked) [Compound 10, 5-[(3,4-dihydro-2,2-dimethyl-2H-1-benzopyran-6-yl)methyl]-3-hydroxy-4-(4-hydroxyphenyl)-2(5H)-furanone] | > 100 | 33.3 ± 7.5 | 23.2 ± 1.1 | – | – | – | – | – |
| COC(=O)C1(Cc2ccc3c(c2)CCC(C)(C)O3)OC(=O)C(O)=C1c1ccc(O)cc1 (centres unmarked) [Compound 11, aspernolide A] | > 100 | 25.4 ± 3.7 | −0.1 ± 0.7 | – | – | – | – | – |
| COC(=O)C1(Cc2ccc(O)c(CCC(C)(C)O)c2)OC(=O)C(O)=C1c1ccc(O)cc1 (centres unmarked) [Compound 12, aspernolide B] | > 100 | 13.4 ± 1.3 | 2.2 ± 1.5 | – | – | – | – | – |
| COC(=O)C1(Cc2ccc(O)c(CCC(C)(C)OC)c2)OC(=O)C(O)=C1c1ccc(O)cc1 (centres unmarked) [Compound 13, aspernolide C] | > 100 | 22.6 ± 5.3 | 3.9 ± 0.9 | – | – | – | – | – |
| COC(=O)C1(Cc2ccc(O)c(CC3OC3(C)C)c2)OC(=O)C(O)=C1c1ccc(O)cc1 (centres unmarked) [Compound 14, butyrolactone III] | – | -12.3 ± 4.6 | −4.2 ± 0.3 | – | > 100 | – | – | – |
| COC(=O)C1(Cc2ccc3c(c2)CC(C(C)(C)O)O3)OC(=O)C(O)=C1c1ccc(O)cc1 (centres unmarked) [Compound 15, butytolactone IV] | > 100 | 33.5 ± 2.3 | 13.3 ± 5.5 | – | – | – | – | – |
| COc1ccc2c3c1O[C@H]1C[C@@H](O)C=C[C@@]31CCN(C)C2 [Galantamine, reference compound] | – | 72.4 ± 1.2 | – | – | – | – | – | 72.4 |
